From ChEMBL document CHEMBL1135849, “Hydroxamate based inhibitors of adenylyl cyclase. Part 1: the effect of acyclic linkers on P-site binding” (Bioorg Med Chem Lett, 2002)
pIC50: −log10 of the molar value.

target: Adenylate cyclase type 5 (Homo sapiens, UniProt O95622); assay: Inhibition of recombinant human adenylate cyclase 5 expressed in HEK293 cells; format: cell-based
Sequence (O95622 whole entry): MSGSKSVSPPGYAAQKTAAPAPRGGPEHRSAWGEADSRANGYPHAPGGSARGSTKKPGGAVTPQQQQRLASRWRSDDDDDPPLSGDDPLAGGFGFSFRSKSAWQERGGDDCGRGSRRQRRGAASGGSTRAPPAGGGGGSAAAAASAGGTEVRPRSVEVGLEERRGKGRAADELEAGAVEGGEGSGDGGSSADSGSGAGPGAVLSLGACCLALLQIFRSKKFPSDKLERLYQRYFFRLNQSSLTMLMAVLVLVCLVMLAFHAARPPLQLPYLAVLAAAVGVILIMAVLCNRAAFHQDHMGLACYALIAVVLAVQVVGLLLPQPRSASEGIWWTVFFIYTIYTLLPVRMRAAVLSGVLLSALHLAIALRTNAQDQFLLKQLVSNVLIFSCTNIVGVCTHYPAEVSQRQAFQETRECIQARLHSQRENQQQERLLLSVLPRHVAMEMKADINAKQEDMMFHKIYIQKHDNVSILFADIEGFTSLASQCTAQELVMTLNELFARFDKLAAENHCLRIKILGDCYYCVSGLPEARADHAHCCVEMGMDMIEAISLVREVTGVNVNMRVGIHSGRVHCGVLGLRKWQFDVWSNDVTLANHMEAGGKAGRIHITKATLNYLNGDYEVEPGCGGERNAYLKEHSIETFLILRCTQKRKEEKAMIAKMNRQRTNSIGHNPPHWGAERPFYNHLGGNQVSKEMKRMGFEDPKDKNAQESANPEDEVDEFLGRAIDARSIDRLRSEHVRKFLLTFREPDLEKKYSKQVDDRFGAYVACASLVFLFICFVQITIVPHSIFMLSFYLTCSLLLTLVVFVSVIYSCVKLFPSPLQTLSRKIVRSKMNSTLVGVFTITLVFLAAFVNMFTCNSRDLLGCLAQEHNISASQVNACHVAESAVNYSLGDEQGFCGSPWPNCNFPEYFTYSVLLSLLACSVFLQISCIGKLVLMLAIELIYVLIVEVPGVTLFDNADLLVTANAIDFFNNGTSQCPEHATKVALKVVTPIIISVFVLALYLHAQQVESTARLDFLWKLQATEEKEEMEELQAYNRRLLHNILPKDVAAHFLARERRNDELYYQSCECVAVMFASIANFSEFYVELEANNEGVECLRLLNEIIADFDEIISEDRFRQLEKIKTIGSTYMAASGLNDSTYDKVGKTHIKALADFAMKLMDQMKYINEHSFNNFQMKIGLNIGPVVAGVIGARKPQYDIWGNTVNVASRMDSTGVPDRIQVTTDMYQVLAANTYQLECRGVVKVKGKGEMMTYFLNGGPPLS

SMILES | pIC50
CC(C)(C)OC(=O)N(CCCn1cnc2c(N)ncnc21)CC(=O)O | < 3.70
CCOC(=O)CCCCCn1cnc2c(N)ncnc21 | < 3.70
Nc1ncnc2c1ncn2CCCC(=O)NO | 5.10
Nc1ncnc2c1ncn2CCCOCC(=O)O | 3.85
CN(CCn1cnc2c(N)ncnc21)CC(=O)NO | 4.82
CC(C)(C)OC(=O)N(CCn1cnc2c(N)ncnc21)CC(=O)O | < 3.70
CC(C)(C)OC(=O)N(CCCn1cnc2c(N)ncnc21)CC(=O)NO | < 3.70
Nc1ncnc2c1ncn2CCNCC(=O)O | < 3.70
Nc1ncnc2c1ncn2CCCOCC(=O)NO | 4.03
CCOC(=O)COCCCn1cnc2c(N)ncnc21 | < 3.70
Nc1ncnc2c1ncn2CCCCCCC(=O)O | < 3.70
Nc1ncnc2c1ncn2CCC(=O)NO | < 3.70
CC(C)(C)OC(=O)N(CCn1cnc2c(N)ncnc21)CC(=O)NO | < 3.70
COC(=O)CNCCn1cnc2c(N)ncnc21 | < 3.70
Nc1ncnc2c1ncn2CCCNCC(=O)O | < 3.70
CC(=O)N(CCn1cnc2c(N)ncnc21)CC(=O)O | < 3.70
Nc1ncnc2c1ncn2CCCCCCC(=O)NO | < 3.70
Nc1ncnc2c1ncn2CCCNCC(=O)NO | < 3.70
COC(=O)CN(CCn1cnc2c(N)ncnc21)C(=O)OC(C)(C)C | < 3.70
CC(=O)N(CCn1cnc2c(N)ncnc21)CC(=O)NO | < 3.70
Nc1ncnc2c1ncn2CCNCC(=O)NO | < 3.70
Nc1ncnc2c1ncn2CCCCCC(=O)O | < 3.70
Nc1ncnc2c1ncn2CCCCC(=O)O | < 3.70
COC(=O)CNCCCn1cnc2c(N)ncnc21 | < 3.70
COC(=O)CCCCn1cnc2c(N)ncnc21 | < 3.70
Nc1ncnc2c1ncn2CCCCCC(=O)NO | 4.45
COC(=O)CN(C)CCn1cnc2c(N)ncnc21 | < 3.70
CCOC(=O)CCCCCCn1cnc2c(N)ncnc21 | < 3.70
COC(=O)CN(CCn1cnc2c(N)ncnc21)C(C)=O | < 3.70
Nc1ncnc2c1ncn2CCCCC(=O)NO | 5.12
